Assays:
[1] = molecular target: Delta-type opioid receptor (Homo sapiens, UniProt P41143); experiment: Displacement of [125I]IOXY from human recombinant delta opioid receptor expressed in CHO cells; assay type: cell-based
Mu-type opioid receptor [2] = molecular target: T1, Mu-type opioid receptor (Homo sapiens, UniProt P35372); experiment: Displacement of [125I]IOXY from human recombinant mu opioid receptor expressed in CHO cells; assay type: cell-based
[3] = molecular target: Kappa-type opioid receptor (Homo sapiens, UniProt P41145); experiment: Displacement of [125I]IOXY from human recombinant kappa opioid receptor expressed in CHO cells; assay type: cell-based
Kappa-type opioid receptor, sequence (P41145 whole entry): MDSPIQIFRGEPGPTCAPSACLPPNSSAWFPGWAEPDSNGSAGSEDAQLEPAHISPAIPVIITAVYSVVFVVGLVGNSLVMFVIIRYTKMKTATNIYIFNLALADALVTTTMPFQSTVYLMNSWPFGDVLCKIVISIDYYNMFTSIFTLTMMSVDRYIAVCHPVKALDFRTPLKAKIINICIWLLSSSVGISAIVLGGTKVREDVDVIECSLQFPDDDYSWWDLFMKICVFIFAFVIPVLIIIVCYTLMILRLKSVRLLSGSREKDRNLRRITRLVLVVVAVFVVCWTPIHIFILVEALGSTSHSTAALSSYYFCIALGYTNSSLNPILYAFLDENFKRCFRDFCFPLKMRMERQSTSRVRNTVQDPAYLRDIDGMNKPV

Mu-type opioid receptor [4] = molecular target: T1, Mu-type opioid receptor
Description: Inverse agonist activity at mu opioid receptor by [35S]GTPgammaS binding assay

Mu-type opioid receptor [5] = molecular target: T1, Mu-type opioid receptor; experiment: Binding affinity to mu opioid receptor

Delta-type opioid receptor, sequence (P41143 whole entry): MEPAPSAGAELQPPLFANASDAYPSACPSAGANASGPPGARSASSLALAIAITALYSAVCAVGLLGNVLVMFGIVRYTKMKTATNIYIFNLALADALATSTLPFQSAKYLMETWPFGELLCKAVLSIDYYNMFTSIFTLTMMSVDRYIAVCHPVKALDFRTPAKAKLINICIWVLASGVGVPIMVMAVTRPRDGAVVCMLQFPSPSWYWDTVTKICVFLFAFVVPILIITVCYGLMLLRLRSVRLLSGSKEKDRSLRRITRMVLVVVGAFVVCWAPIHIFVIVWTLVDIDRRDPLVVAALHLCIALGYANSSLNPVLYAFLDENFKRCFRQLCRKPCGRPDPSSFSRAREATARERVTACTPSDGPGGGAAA
T1 sequence (P35372 whole entry): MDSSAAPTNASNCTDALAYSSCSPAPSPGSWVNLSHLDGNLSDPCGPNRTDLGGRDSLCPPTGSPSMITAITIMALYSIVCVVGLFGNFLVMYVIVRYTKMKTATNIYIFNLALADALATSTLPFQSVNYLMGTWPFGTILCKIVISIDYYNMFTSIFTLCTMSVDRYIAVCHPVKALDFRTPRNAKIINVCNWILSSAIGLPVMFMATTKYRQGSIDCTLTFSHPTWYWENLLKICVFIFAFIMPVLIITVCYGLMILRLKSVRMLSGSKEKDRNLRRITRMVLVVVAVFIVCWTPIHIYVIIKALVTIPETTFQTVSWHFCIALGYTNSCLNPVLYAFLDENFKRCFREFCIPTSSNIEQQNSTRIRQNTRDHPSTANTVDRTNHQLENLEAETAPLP

SMILES	Ki [1] [nM]	Ki (Mu-type opioid receptor [2]) [nM]	Ki [3] [nM]	Ke (Mu-type opioid receptor [4]) [nM]	Ki (Mu-type opioid receptor [5]) [nM]
Oc1cccc(C23CCCC(C2)N(C/C=C/c2ccccc2)CC3)c1 (single isomer, unassigned; (-)) [listing 1 of 2 here]	152	6	225	–	–
Oc1cccc(C23CCCC(C2)N(C/C=C/c2ccccc2)CC3)c1 (single isomer, unassigned; (+)) [listing 1 of 2 here]	–	–	–	0.58	–
Oc1cccc([C@]23CCC[C@H](C2)N(C[C@@H]2C[C@@H]2c2ccccc2)CC3)c1	610	265	153	8.6	–
Oc1cccc(C23CCCC(C2)N(C/C=C/c2ccccc2)CC3)c1 (single isomer, unassigned; (+)) [listing 2 of 2 here]	138	2	125	–	–
Oc1cccc([C@]23CCC[C@H](C2)N(C[C@H]2C[C@H]2c2ccccc2)CC3)c1	547	76	174	18	–
Oc1cccc([C@@]23CCC[C@@H](C2)N(C[C@H]2C[C@@H]2c2ccccc2)CC3)c1	165	3	72	0.17	–
Oc1cccc([C@]23CCC[C@H](C2)N(C/C=C\c2ccccc2)CC3)c1 (single isomer, unassigned)	454	26	123	3.1	–
C[C@H]1CN(CC2CC2c2ccccc2)CC[C@@]1(C)c1cccc(O)c1 (some centres undefined)	–	–	–	–	1.75
Oc1cccc([C@]23CCC[C@H](C2)N(C[C@@H]2C[C@H]2c2ccccc2)CC3)c1	800	47	390	9.4	–
Oc1cccc([C@@]23CCC[C@@H](C2)N(C/C=C\c2ccccc2)CC3)c1 (single isomer, unassigned)	359	14	367	7.7	–
Oc1cccc([C@]23CCC[C@H](C2)N(C[C@H]2C[C@@H]2c2ccccc2)CC3)c1	183	16	323	2.2	–
Oc1cccc([C@@]23CCC[C@@H](C2)N(C[C@H]2C[C@H]2c2ccccc2)CC3)c1	1980	459	475	33	–
Oc1cccc([C@@]23CCC[C@@H](C2)N(C[C@@H]2C[C@H]2c2ccccc2)CC3)c1	200	4	210	0.31	–
Oc1cccc([C@@]23CCC[C@@H](C2)N(C[C@@H]2C[C@@H]2c2ccccc2)CC3)c1	196	11	322	8.2	–
Oc1cccc(C23CCCC(C2)N(C/C=C/c2ccccc2)CC3)c1 (single isomer, unassigned; (-)) [listing 2 of 2 here]	–	–	–	6.6	–

Source: ChEMBL document CHEMBL1671786, “Probes for narcotic receptor mediated phenomena. 41. Unusual inverse μ-agonists and potent μ-opioid antagonists by modification of the N-substituent in enantiomeric 5-(3-hydroxyphenyl)morphans” (J Med Chem, 2011)
